Like-named read-outs stand apart in the source and are kept apart here. Where no end group is shown, it is not given here. [ ]: non-standard residue; d: D form. NMeL = CN[C@@H](CC(C)C)C(=O)O
Legend:
[1] = tested on: E. coli strain DH5α; assay: E. coli growth (OD600) with peptide; format: cell-based; conditions: for effect on log phase growth (OD600): added at OD600 0.2, 500 μg/m, LB or TSB
Procedure: E. coli strain DH5α was grown overnight in mls of Lennox Broth (LB). This culture was diluted to an optical density at […] (OD600) of 0.06. The diluted E.coli was dispensed in 1.5 ml aliquots into separate tubes and 1.5 ml of EP67 (YSFKDMP(MeL)aR (SEQ ID NO: 4)), EP54 (YSFKPMPLaR (SEQ ID NO: 3)), scrambled-EP67 (s-EP67) or scrambled-EP54 in LB was added to obtain a final concentration of 500 μg/ml with the E. coli at an OD600 of 0.03. A culture in LB was also prepared. The cultures were incubated at 37° C. with shaking and the OD600 readings recorded hourly. In order to determine whether the growth media altered the effectiveness of EP67, LB was replaced with an alternative growth media, Tryptic Soy Broth (TSB).
To test the efficacy of EP67 on bacteria growing in log phase, overnight cultures of DH5α were grown in either LB or TSB. The cultures were diluted to an OD600 of 0.03 and incubated at 37° C. with shaking until they reached an OD600 of 0.2 at which time either EP67 or s-EP67, in the appropriate media, were added to a final concentration of 500 μg/m. DH5α control cultures (absence of additives) were also prepared. The tubes were further shaken at 37° C. and OD600 readings were taken hourly.

[2] = tested on: neutrophils; assay: In vivo neutrophil chemotaxis: histopathology and myeloperoxidase assay; parameters: species or system CD1 mice; conditions: for histopathologic analysis of skin tissue: 250 μg s.c., no bacteria
Procedure: Neutrophil chemotaxis and myeloperoxidase assay. Neutrophil recruitment at the site of injection by EP67 or sEP67 was examined using an in vivo chemotaxis assay as described previously (van Sorge N M, et al., PloS One 2008; 3:e2964). Briefly, 250 μg EP67 or sEP67 were injected subcutaneously into the right flank of CD1 mice. The injection was repeated after 24 h. Mice were euthanized 4 h after the second injection and the site of injection excised for histopathoglogic analysis or determination of myeloperoxidase (MPO) activity as described previously (van Sorge N M, et al., supra). The assay was carried out two times and the samples analyzed in duplicate.
Neutrophil influx is essential for the protective action of EP67. […] Neutrophil recruitment to the site of EP67 injection was further analyzed using an in vivo neutrophil recruitment assay as described previously (van Sorge N M, et al., supra; and Banerjee A, et al., Cell Microbiol; 12:1576-1588). Neutrophil migration was assessed in skin homogenates following injection of EP67 or sEP67 by determining the level of neutrophil enzyme myeloperoxidase (MPO), which serves as an effective indication of neutrophil infiltration (Banerjee A, et al., supra; and Bradley P P, et al., J Invest Dermatol 1982; 78:206-209). This method compares well with other in vivo assays of neutrophil chemotaxis (van Sorge N M, et al., supra).

[3] = tested on: MRSA; format: in vivo, C57B1/6 mice; conditions: for lesion size in CD88 −/− background vs EP67-treated CD88 +/+ background: mouse, in vivo
[4] = tested on: S. aureus (Newman strain); assay: S. aureus in vitro EP67 killing curves; format: cell-based; conditions: dilution series, LB; higher concentrations
Procedure: 150 μl of LB growth medium plus 50 μl of EP67 or s-EP67 were added to individual culture wells resulting in a dilution series of 6 wells per EP67 or s-EP67. A “no EP67” well (control) was included at the end of each series. S. aureus (Newman strain) was allowed to grow to an OD600 of 0.4 and each well of the dilution series was inoculated with 5μl of the culture. Two wells with no bacterial inoculums were included to serve as controls. Plates were incubated at 37° C. with agitation and the OD600 of each well was measured hourly using a plate reader.

[5] = tested on: S. aureus (USA300 LAC strain) biofilm; assay: S. aureus catheter biofilm model; conditions: Day 3, relative to sEP67 and PBS vehicle
Procedure: A S. aureus (USA300 LAC strain) biofilm was established on a hollow catheter (1 cm in length) inserted subcutaneously into C57BL/6 mice by introducing 1000 CFUs of S. aureus into the catheter lumen. At the time of infection, one dose of EP67 (200 μg/ml dissolved in PBS) was introduced. At both 24 and 48 h following infection, a series of four injections of EP67 were made; two into each open end of the catheter (20 μl each) and two along the top and bottom at points perpendicular to the middle of the catheter (50 μl each). Samples of the biofilm and surrounding tissue were obtained at Day 3 and assessed for the presence of viable bacteria by standard culture methods.

[6] = tested on: bronchoalveolar lavage (BAL) cells; assay: BAL cell response of aged mice to EP67 insufflation; format: in vivo
[7] = tested on: GBS; assay: Group B Streptococcus (GBS) meningitis model; format: in vivo, CD1 mice; conditions: 250 ug i.p. at day −1, 0, 1 and 2; brain and blood cfu 96 hours post-injection
Procedure: 8-week old female CD1 mice were treated with 250 ug of EP67 or s-EP67 at day −1, 0, 1 and 2 via i.p. injection. GBS was injected via i.p. at 1×10^9 cfu/mouse. Brains and blood were harvested from each mouse 96 hours post-injection. The tissue was homogenized, diluted and plated to determine the cfu/g bacteria.

[8] = tested on: influenza A/PR/8; format: in vivo, mice; conditions: uninfected animals treated with EP67, one day later
[9] = tested on: bronchoalveolar lavage (BAL) cells; assay: BAL cell FACS analysis after EP67 insufflation; format: in vivo, mice
Procedure: In short, EP67 (3 mg/kg) was delivered directly to the lungs of mice through insufflation (IN). […] Lungs were lavaged with PBS to isolate the bronchoalveolar lavage (BAL) cells for staining and FACS analysis.

[10] = tested on: influenza A/A/PR/8; assay: Influenza-induced weight loss after one EP67 treatment; format: in vivo, mice
[11] = tested on: influenza; assay: ELISA for anti-influenza antibodies in serum; format: in vivo, mice; conditions: each EP67 treatment group
[12] = EP67 3 mg/kg insufflation, one day later

(MeL)RMYKPaFDS ([NMeL]RMYKP[dA]FDS) [sEP67, reference compound]
effect on log phase growth (OD600) [1]: little or no effect on growth | histopathologic analysis of skin tissue [2]: normal pathology | lesion size in CD88 −/− background vs EP67-treated CD88 +/+ background [3]: significantly larger

YSFKDMP(MeL)aR (YSFKDMP[NMeL][dA]R; listed as Homo sapiens) [EP67, C-terminal analog of human C5a]
effect on bacterial growth (OD600) [4]: dose dependent inhibitory effect | effect on bacterial growth (OD600) ([1]; 500 μg/ml, start OD600 0.03, LB or TSB): direct bacteriostatic/bacteriocidal effects | effect on log phase growth (OD600) [1]: significantly reduce and/or stop log phase growth | bacterial burdens in surrounding tissue [5]: significant decrease in bacterial burdens | bacterial burdens within the biofilm [5]: significant decrease in bacterial burdens | exMacs and neutrophils in alveolar space [6]: a large population of exMAcs and neutrophils into the alveolar space | protection against GBS infection in the central nervous system [7]: protects against GBS infections in the central nervous system | influx of innate effectors (exMacs, neutrophils) in BAL [8]: displayed this influx of innate effectors | CD11b+CD11c− cells (GR-1+ neutrophils) in alveolar space [9, 12]: a large population of CD11b^+CD11c^− cells appeared in the alveolar space | exudate macrophages (exMac) in BAL cells [9, 12]: appearance of cells bearing the CD11b^+CD11c^+ phenotype of exudate macrophages (exMac) | dose dependence of EP67-induced changes in BAL populations ([9]; mouse, in vivo): strict dose-response | time course of the EP67 response in BAL cells: neutrophils ([9]; seven days post EP67 administration): the neutrophils were largely lost | myeloperoxidase (MPO) levels in skin homogenates (accumulating neutrophils) ([2]; 250 μg s.c. twice, 4 h after second injection, compared to sEP67): significantly higher | histopathologic analysis of skin tissue [2]: massive influx of inflammatory cells, including neutrophils | protection from influenza-induced morbidity ([10]; treated on day 2 after infection): not associated with any protection | protection from influenza-induced morbidity ([10]; treated on day 3 after infection): not associated with any protection | influenza-induced weight loss ([10]; treated one day after infection): significant protection from influenza-induced weight loss | influenza-induced weight loss ([10]; treated the day before infection, vs non-treated animals): lost significantly less weight | influenza-induced weight loss ([10]; treated the day of infection, vs non-treated animals): lost significantly less weight | anti-influenza Abs in serum [11]: high concentration of anti-influenza Abs | lesion size ([3]; CD88 −/− animals, EP67 vs sEP67): no difference in lesion size | lesion size in CD88 −/− background vs EP67-treated CD88 +/+ background [3]: significantly larger | lesion size ([3]; wild-type CD88 +/+ animals, EP67 compared to sEP67): significantly smaller lesions
